From US20040209954A1, “Compositions and methods for treating body malodor and fungal overgrowth in mammals” (priority 2003, published 2004)

How the values were obtained:
Type in all cases: cell-based
[1] = test system: Corynebacterium vitaeruminis; assay: Time Kill (D-Value) study, antibacterial; details: glycopyrrolate 3%, vehicle 65% water/35% ethanol
Excerpt: (§1) In Vitro and in vivo tests can be used to show the efficacy of antimicrobial products. With appropriate controls and methods In Vitro tests are applicable to all products. The time-to-kill test is used to determine the killing kinetics and activity spectrum of antimicrobials. In this example, the test was, as is usual, performed in suspension. The principle is to place the product or agent in contact with an inoculum for a specified period of time. At the end of the contact time, the mixture is inactivated by dilution into neutralizing broth. Serial dilutions in appropriate broth are performed and the number of surviving bacterial observed on solid culture media. It is general practice to test agents so that the final concentration is representative of the use concentration of the product.
(§2) Similarly, In Vitro and In Vivo tests can be used to show the efficacy of antimicrobial products against bacterial species. Such a Time Kill (D-Value) study was conducted and illustrates the antibacterial activity of the ACQA agents that are the subject of this invention. In this case, the study was carried out to screen for the antibacterial activity of glycopyrrolate (3%) and triclosan (0.3%). Testing was done to determine the speed and MIC at which the product kills representative test organisms, which were Micrococcus luteous (syn ATTC 9341 changed to Kocuria rhizophila), Staphylococcos epidermidis and Corynebacterium vitaeruminis, representative odor-causing species. Once again, the vehicle was 65% water/35% ethanol.

[2] = test system: Micrococcus luteous (syn ATTC 9341 changed to Kocuria rhizophila); assay: Time Kill (D-Value) study, antibacterial; details: glycopyrrolate 3%, vehicle 65% water/35% ethanol
Excerpt: as §1, §2

[3] = test system: Staphylococcos epidermidis; assay: Time Kill (D-Value) study, antibacterial; details: glycopyrrolate 3%, vehicle 65% water/35% ethanol
Excerpt: as §1, §2

[4] = test system: A. Niger; assay: Minimum inhibitory concentration (MIC) versus A. niger
Experimental: In the instance of anti-fungal activity, detailed analysis has been carried out with a prototypical pathogen, Trichophytone mentagrophytes. The testing was conducted and illustrates the activity of the ACQA agents that are the subject of this invention. A Time Kill (D-Value) study (ASTM protocol #1891-97 Standard Guide For Determination Of A Survival Curve For Antimicrobial Agents Against Selected Microorganisms And Calculation Of A D-value And Concentration Coefficient) was carried out to screen for the antifungal activity of glycopyrrolate (3%). Testing was done to determine the speed at which the product kills a representative test organism, which was Trichophyton mentagrophytes, a representative dermatophyte-causing species. Determination of the minimum inhibitory concentration (MIC) versus A. Niger, a prototypical fungi was also initiated. The vehicle was 65% water/35% ethanol.
(§3) Additional scientific investigation was completed to verify the drug class aspects of this invention. […] Specifically, Mepenzolate bromide and Ipratropium bromide were evaluated utilizing standardized microbiological test methods for minimum inhibitory concentration (MIC) versus A. niger and C. albicans. MICs in the range of 1% were observable, confirming the antifungal activity of this class of compound. Insofar as ipratropium is used for intranasal purposes, it is apparent that the discovered property is not predicted by any known attribute of this class of drugs.

[5] = test system: Trichophyton mentagrophytes; assay: Time Kill (D-Value) study, antifungal; details: glycopyrrolate 3%, vehicle 65% water/35% ethanol
Excerpt: as §1
In the instance of anti-fungal activity, detailed analysis has been carried out with a prototypical pathogen, Trichophytone mentagrophytes. The testing was conducted and illustrates the activity of the ACQA agents that are the subject of this invention. A Time Kill (D-Value) study (ASTM protocol #1891-97 Standard Guide For Determination Of A Survival Curve For Antimicrobial Agents Against Selected Microorganisms And Calculation Of A D-value And Concentration Coefficient) was carried out to screen for the antifungal activity of glycopyrrolate (3%). […]

[6] = test system: C. albicans; assay: Minimum inhibitory concentration (MIC) versus C. albicans
Experimental: as §3

SMILES	time to kill in D Value study [1] [min]	time to kill in D Value study [2] [min]	time to kill in D Value study [3] [min]	MIC versus A. niger [4] [%]	time to antifungal effect over and above vehicle in D Value study [5] [min]	MIC versus C. albicans [6] [%]
C[N+]1(C)CCC(OC(=O)C(O)(c2ccccc2)C2CCCC2)C1 (stereo not drawn) [glycopyrrolate]	4	4	4	> 0.1	24	–
CC(C)[N+]1(C)[C@@H]2CC[C@H]1CC(OC(=O)C(CO)c1ccccc1)C2.[Br-] (stereo partly drawn) [Ipratropium bromide]	–	–	–	~1	–	~1
C[N+]1(C)CCCC(OC(=O)C(O)(c2ccccc2)c2ccccc2)C1 (stereo not drawn) [Mepenzolate bromide]	–	–	–	~1	–	~1
